For 14 compounds, IC50 results are on record in patent publication US20250059171A1 (Hoffmann-La Roche Inc., priority 2021, published 2025).

The structures appear in SMILES notation.

In test [1] the target is SARS-CoV 3CLpro (Severe acute respiratory syndrome coronavirus, UniProt P0C6X7). Briefly: biochemical.
For test [2], the target named is SARS-CoV-2 3CLpro (Severe acute respiratory syndrome coronavirus 2, UniProt P0DTD1). Briefly: biochemical.
In test [3] the target is HCoV-229E 3CLpro (Human coronavirus 229E, UniProt P0C6X1). Briefly: HCoV-229E 3CLpro inhibition assay (FRET). The class given is biochemical.
Sequence of HCoV-229E 3CLpro (P0C6X1 2966-3267): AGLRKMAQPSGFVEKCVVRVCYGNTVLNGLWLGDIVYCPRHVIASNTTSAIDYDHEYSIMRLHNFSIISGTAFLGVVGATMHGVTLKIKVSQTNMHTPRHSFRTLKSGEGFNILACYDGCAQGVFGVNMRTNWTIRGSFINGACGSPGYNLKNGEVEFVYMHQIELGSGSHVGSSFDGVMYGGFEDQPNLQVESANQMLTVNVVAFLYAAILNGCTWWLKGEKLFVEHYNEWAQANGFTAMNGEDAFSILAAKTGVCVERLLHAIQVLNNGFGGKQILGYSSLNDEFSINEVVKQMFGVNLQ
The target of test [4] is MERS-CoV 3CLpro (Middle East respiratory syndrome-related coronavirus, UniProt K9N7C7). Briefly: biochemical.
Sequence of MERS-CoV 3CLpro (K9N7C7 3248-3553): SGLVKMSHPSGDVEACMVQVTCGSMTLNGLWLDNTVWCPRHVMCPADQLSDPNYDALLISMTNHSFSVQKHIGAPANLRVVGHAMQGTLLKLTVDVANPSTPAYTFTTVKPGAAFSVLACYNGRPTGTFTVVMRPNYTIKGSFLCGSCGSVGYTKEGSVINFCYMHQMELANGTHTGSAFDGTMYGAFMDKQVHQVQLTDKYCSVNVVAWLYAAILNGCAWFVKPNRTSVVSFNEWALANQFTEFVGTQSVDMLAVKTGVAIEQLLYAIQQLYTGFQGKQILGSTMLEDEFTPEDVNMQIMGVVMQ

A word on the IC50: it is the concentration that gives 50% inhibition. As for `CC(C)(C)[C@H](NC(=O)C1CC(F)(F)C1)C(=O)N1C[C@@H]2CCC[C@@H]2[C@H]1C(=O)NN(C[C@@H]1CCNC1=O)C(=O)[C@H](F)Cl` [Example 98, N-[(1S)-1-[(3S,3aS,6aR)-3-[[[(2R)-2-chloro-2-fluoro-acetyl]-[[(3S)-2-oxopyrrolidin-3-yl]methyl]amino]carbamoyl]-3,3a,4,5,6,6a-hexahydro-1H-cyclopenta[c]pyrrole-2-carbonyl]-2,2-dimethyl-propyl]-3,3-difluoro-cyclobutanecarboxamide], the IC50 in test [1] was found to be 11 nM; in test [2] it was 9 nM; in test [3], 22 nM; in test [4], 59 nM.

Turning to `CC(C)(C)[C@H](NC(=O)[C@@H]1CC1(F)F)C(=O)N1C[C@@H]2CCC[C@@H]2[C@H]1C(=O)NN(C[C@@H]1CCNC1=O)C(=O)[C@H](F)Cl` [Example 99, (1S)—N-[(1S)-1-[(3S,3aS,6aR)-3-[[[(2R)-2-chloro-2-fluoro-acetyl]-[[(3S)-2-oxopyrrolidin-3-yl]methyl]amino]carbamoyl]-3,3a,4,5,6,6a-hexahydro-1H-cyclopenta[c]pyrrole-2-carbonyl]-2,2-dimethyl-propyl]-2,2-difluoro-cyclopropanecarboxamide], the concentration for half-maximal inhibition (IC50) is 12 nM in test [1], 8 nM in test [2], 30 nM in test [3] and 81 nM in test [4].

For the compound `CC(C)(C)[C@H](NC(=O)[C@H]1CC1(F)F)C(=O)N1C[C@@H]2CCC[C@@H]2[C@H]1C(=O)NN(C[C@@H]1CCNC1=O)C(=O)[C@H](F)Cl` [Example 100, (1R)—N-[(1S)-1-[(3S,3aS,6aR)-3-[[[(2R)-2-chloro-2-fluoro-acetyl]-[[(3S)-2-oxopyrrolidin-3-yl]methyl]amino]carbamoyl]-3,3a,4,5,6,6a-hexahydro-1H-cyclopenta[c]pyrrole-2-carbonyl]-2,2-dimethyl-propyl]-2,2-difluoro-cyclopropanecarboxamide], the IC50 in test [1] is 14 nM; in test [2], 8 nM; in test [3], 32 nM; in test [4] it was 77 nM.

Turning to `CC(C)(C)[C@H](NC(=O)[C@@H]1CC1(F)F)C(=O)N1C[C@@H]2CCC[C@@H]2[C@H]1C(=O)NN(C[C@@H]1CCNC1=O)C(=O)[C@@H](F)Cl` [Example 101, (1S)—N-[(1S)-1-[(3S,3aS,6aR)-3-[[[(2S)-2-chloro-2-fluoro-acetyl]-[[(3S)-2-oxopyrrolidin-3-yl]methyl]amino]carbamoyl]-3,3a,4,5,6,6a-hexahydro-1H-cyclopenta[c]pyrrole-2-carbonyl]-2,2-dimethyl-propyl]-2,2-difluoro-cyclopropanecarboxamide], the IC50 in test [1] amounted to 13 nM; in test [2], 9 nM; in test [3] it was 40 nM; in test [4], 94 nM.

Take `CC(C)(C)[C@H](NC(=O)C(F)(F)F)C(=O)N1C[C@@H]2CCC[C@@H]2[C@H]1C(=O)NN(C[C@@H]1CCNC1=O)C(=O)[C@@H](F)Cl` [Example 102, N-[(1S)-1-[(3S,3aS,6aR)-3-[[[(2S)-2-chloro-2-fluoro-acetyl]-[[(3S)-2-oxopyrrolidin-3-yl]methyl]amino]carbamoyl]-3,3a,4,5,6,6a-hexahydro-1H-cyclopenta[c]pyrrole-2-carbonyl]-2,2-dimethyl-propyl]-2,2,2-trifluoro-acetamide]: the 50% inhibitory concentration (IC50) in test [1] is 16 nM; in test [2] it was 12 nM; in test [3] it was 112 nM; in test [4], 207 nM.

As for `CC(C)(C)[C@H](NC(=O)C1(F)CC1)C(=O)N1C[C@@H]2CCC[C@@H]2[C@H]1C(=O)NN(C[C@@H]1CCNC1=O)C(=O)[C@@H](F)Cl` [Example 103, N-[(1S)-1-[(3S,3aS,6aR)-3-[[[(2S)-2-chloro-2-fluoro-acetyl]-[[(3S)-2-oxopyrrolidin-3-yl]methyl]amino]carbamoyl]-3,3a,4,5,6,6a-hexahydro-1H-cyclopenta[c]pyrrole-2-carbonyl]-2,2-dimethyl-propyl]-1-fluoro-cyclopropanecarboxamide], the concentration for half-maximal inhibition (IC50) in test [1] came out at 25 nM; in test [2] it was 13 nM; in test [3], 167 nM; in test [4], 372 nM.

For the compound `CC(C)(C)[C@H](NC(=O)[C@H]1CC1(F)F)C(=O)N1C[C@@H]2CCC[C@@H]2[C@H]1C(=O)NN(C[C@@H]1CCNC1=O)C(=O)[C@@H](F)Cl` [Example 104, (1R)—N-[(1S)-1-[(3S,3aS,6aR)-3-[[[(2S)-2-chloro-2-fluoro-acetyl]-[[(3S)-2-oxopyrrolidin-3-yl]methyl]amino]carbamoyl]-3,3a,4,5,6,6a-hexahydro-1H-cyclopenta[c]pyrrole-2-carbonyl]-2,2-dimethyl-propyl]-2,2-difluoro-cyclopropanecarboxamide], the concentration for half-maximal inhibition (IC50) was determined as 20 nM in test [1], 12 nM in test [2], 55 nM in test [3] and 128 nM in test [4].

Take `CC[C@H](C)[C@H](NC(=O)C1(F)CCC1)C(=O)N1C[C@H]2[C@@H]([C@H]1C(=O)NN(C[C@@H]1CCNC1=O)C(=O)[C@H](F)Cl)C2(C)C` [Example 105, N-[(1S,2S)-1-[(1R,2S,5S)-2-[[[(2R)-2-chloro-2-fluoro-acetyl]-[[(3S)-2-oxopyrrolidin-3-yl]methyl]amino]carbamoyl]-6,6-dimethyl-3-azabicyclo[3.1.0]hexane-3-carbonyl]-2-methyl-butyl]-1-fluoro-cyclobutanecarboxamide]: the concentration for half-maximal inhibition (IC50) came to 11 nM in test [1], 8 nM in test [2], 27 nM in test [3] and 71 nM in test [4].

For the compound `CC[C@H](C)[C@H](NC(=O)C1(F)CC1)C(=O)N1C[C@H]2[C@@H]([C@H]1C(=O)NN(C[C@@H]1CCNC1=O)C(=O)[C@@H](F)Cl)C2(C)C` [Example 106, N-[(1S,2S)-1-[(1R,2S,5S)-2-[[[(2S)-2-chloro-2-fluoro-acetyl]-[[(3S)-2-oxopyrrolidin-3-yl]methyl]amino]carbamoyl]-6,6-dimethyl-3-azabicyclo[3.1.0]hexane-3-carbonyl]-2-methyl-butyl]-1-fluoro-cyclopropanecarboxamide], the half-inhibitory concentration (IC50) in test [1] came to 57 nM; in test [2] it was 33 nM; in test [3], 66 nM; in test [4], 179 nM.

For `CC[C@H](C)[C@H](NC(=O)C(F)(F)F)C(=O)N1C[C@H]2[C@@H]([C@H]1C(=O)NN(C[C@@H]1CCNC1=O)C(=O)[C@@H](F)Cl)C2(C)C` [Example 107, N-[(1S,2S)-1-[(1R,2S,5S)-2-[[[(2S)-2-chloro-2-fluoro-acetyl]-[[(3S)-2-oxopyrrolidin-3-yl]methyl]amino]carbamoyl]-6,6-dimethyl-3-azabicyclo[3.1.0]hexane-3-carbonyl]-2-methyl-butyl]-2,2,2-trifluoro-acetamide], the half-inhibitory concentration (IC50) in test [1] was determined as 25 nM; in test [2], 18 nM; in test [3], 40 nM; in test [4] it was 111 nM.

On to `CC[C@H](C)[C@H](NC(=O)C1CC(F)(F)C1)C(=O)N1C[C@H]2[C@@H]([C@H]1C(=O)NN(C[C@@H]1CCNC1=O)C(=O)[C@@H](F)Cl)C2(C)C` [Example 108, N-[(1S,2S)-1-[(1R,2S,5S)-2-[[[(2S)-2-chloro-2-fluoro-acetyl]-[[(3S)-2-oxopyrrolidin-3-yl]methyl]amino]carbamoyl]-6,6-dimethyl-3-azabicyclo[3.1.0]hexane-3-carbonyl]-2-methyl-butyl]-3,3-difluoro-cyclobutanecarboxamide], for which the IC50 in test [1] amounted to 74 nM; in test [2], 43 nM; in test [3], 50 nM; in test [4], 127 nM.

Consider `CC[C@H](C)[C@H](NC(=O)C(F)F)C(=O)N1C[C@H]2[C@@H]([C@H]1C(=O)NN(C[C@@H]1CCNC1=O)C(=O)[C@@H](F)Cl)C2(C)C` [Example 109, N-[(1S,2S)-1-[(1R,2S,5S)-2-[[[(2S)-2-chloro-2-fluoro-acetyl]-[[(3S)-2-oxopyrrolidin-3-yl]methyl]amino]carbamoyl]-6,6-dimethyl-3-azabicyclo[3.1.0]hexane-3-carbonyl]-2-methyl-butyl]-2,2-difluoro-acetamide], for which the 50% inhibitory concentration (IC50) in test [1] is 20 nM; in test [2] it was 14 nM; in test [3] it was 29 nM; in test [4], 86 nM.

Consider `CC[C@H](C)[C@H](NC(=O)C(C)C)C(=O)N1C[C@H]2[C@@H]([C@H]1C(=O)NN(C[C@@H]1CCNC1=O)C(=O)[C@@H](F)Cl)C2(C)C` [Example 110, N-[(1S,2S)-1-[(1R,2S,5S)-2-[[[(2S)-2-chloro-2-fluoro-acetyl]-[[(3S)-2-oxopyrrolidin-3-yl]methyl]amino]carbamoyl]-6,6-dimethyl-3-azabicyclo[3.1.0]hexane-3-carbonyl]-2-methyl-butyl]-2-methyl-propanamide], for which the IC50 was determined as 33 nM in test [1], 24 nM in test [2], 37 nM in test [3] and 96 nM in test [4].

In the case of `CC[C@@H](C)[C@H](NC(=O)C(F)F)C(=O)N1C[C@H]2[C@@H]([C@H]1C(=O)NN(C[C@@H]1CCNC1=O)C(=O)[C@H](F)Cl)C2(C)C` [Example 112, N-[(1S,2R)-1-[(1R,2S,5S)-2-[[[(2R)-2-chloro-2-fluoro-acetyl]-[[(3S)-2-oxopyrrolidin-3-yl]methyl]amino]carbamoyl]-6,6-dimethyl-3-azabicyclo[3.1.0]hexane-3-carbonyl]-2-methyl-butyl]-2,2-difluoro-acetamide], the concentration for half-maximal inhibition (IC50) in test [1] amounted to 14 nM; in test [2] it was 8 nM; in test [3], 22 nM; in test [4], 71 nM.
